Data set [1] deals with SARS-CoV-2 nLUC. The data set can be described thus: microbe, parasite or virus in culture. In kind it is cell-based. The conditions noted are these: Severe acute respiratory syndrome coronavirus 2.
Data set [2] concerns WT SARS-CoV-2. In kind it is cell-based.
Data set [3] has as its system SARS-CoV-2 Fluc. Kind of data set: microbe, parasite or virus in culture. Format: cell-based. The following applies: Severe acute respiratory syndrome coronavirus 2, NHBE, in Homo sapiens, 24 h.
Data set [4] can be described thus: Plasma pharmacokinetics after oral administration in uninfected BALB/c mice. Format: in vivo.
For data set [5] the following is noted: molar basis, compared with RDV; cited from earlier work.

With `N#C[C@@]1(c2ccc3c(N)ncnn23)O[C@H](CO)[C@@H](O)[C@H]1O` [GS-441524], the EC50 in data set [1] turned out to be 3.3 µM; in data set [3] it was 2.45 µM. In addition, the “infectious virus production / viral titers” value in data set [2] is “significant and dose-dependent reduction in viral titers”. Further, the “maximal plasma concentrations (Cmax) and exposures (AUC0–24h)” value in data set [4] (GS-441524 after single oral GS-621763, 5 vs 20 mg/kg) is listed as “Dose proportional increases”. Further, in data set [5], the “efficiency at generating lung triphosphate, less than RDV” value was “at least 10 fold”.
Regarding `O=c1nc(NO)ccn1[C@@H]1O[C@H](CO)[C@@H](O)[C@H]1O` [NHC, β-D-N4-hydroxycytidine], the NHC plasma exposures result in data set [4] (after oral MPV 30 mg/kg or 100 mg/kg BID, BALB/c mice) is recorded as “dose proportional increases”.
Take `CCC(CC)COC(=O)[C@H](C)N[P@](=O)(OC[C@H]1O[C@@](C#N)(c2ccc3c(N)ncnn23)[C@H](O)[C@@H]1O)Oc1ccccc1` [RDV, remdesivir]: the figures for the EC50 in data set [1] and in data set [3] were 0.28 µM and 0.0371 µM, respectively. In addition, in data set [2], the “infectious virus production / viral titers” value was “significant and dose-dependent reduction in viral titers”.

(Values after publication PMC8452096 (bioRxiv, 2021).)
